Assay results reported in patent US20250295612A1, “NOVEL AMYLOID-BETA AGGREGATE DEGRADER AND BRAIN-TARGETING DRUG DELIVERY SYSTEM USING SAME” (UNIVERSITY-INDUSTRY COOPERATION GROUP OF KYUNG HEE …, priority 2022, published 2025).

Assays:
[1] = molecular target: T1, amyloid-beta plaques (amyloid-beta (Aβ) 1-42) (Homo sapiens, UniProt P05067); assay: Thioflavin T (ThT) fluorescence analysis of amyloid-beta plaque disaggregation; assay type: biochemical
T1 construct: amyloid-beta (Aβ) 1-42 (Anaspec, AS-20276, MW=4514.1, 1 mg); purchased Anaspec AS-20276
T1 sequence (P05067 672-713 limits assumed): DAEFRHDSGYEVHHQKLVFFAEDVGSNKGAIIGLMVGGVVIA
Protocol: To prepare amyloid-beta plaques, amyloid-beta (Aβ) 1-42 (Anaspec, AS-20276, MW=4514.1, 1 mg) was dissolved in a 1× PBS buffer (pH 7.4, 1 mL) to a final concentration of 222 μM. The solution was incubated (200 rpm) at 37° C. for 3 days, and the formed amyloid-beta plaques (Aβ plaques) were used in the following in vitro experiment without additional purification. From the formed library, hit compounds were identified through fluorescence analysis using thioflavin T (ThT), a probe of amyloid-beta plaques. Specifically, each amyloid-beta plaque disaggregation candidate (100 μM) was mixed with amyloid-beta plaques (10 μM) and ThT (10 μM), and incubated at 37° C. for 24 hours, and then a change in fluorescence intensity of ThT at 482 nm was confirmed (excitation wavelength: 413 nm). The absorption and emission spectra of ThT were obtained using UV/vis absorption spectroscopy (Agilent, California, USA) and a spectrofluorophotometer (Shimadzu Corp., Kyoto, Japan). For Compound P (ANA), a hit compound confirmed in Example 1, the amyloid-beta plaque disaggregation efficacy under various concentration conditions and pH conditions was confirmed through ThT assay in the same manner as in Example 1, and an emission intensity plot of ThT (10 μM) at 482 nm was shown in FIG. 2 (excitation wavelength: 413 nm).

amyloid-beta plaques [2] = molecular target: T2, amyloid-beta plaques (Homo sapiens, UniProt P05067); assay: TEM analysis of amyloid-beta plaque morphology; settings: ANA (100 µM), plaques 20 μM
T2 construct: amyloid-beta (Aβ) 1-42 (Anaspec, AS-20276, MW=4514.1, 1 mg); purchased Anaspec AS-20276
T2 sequence (P05067 672-713 limits assumed): as above
Protocol: (§1) To prepare amyloid-beta plaques, amyloid-beta (Aβ) 1-42 (Anaspec, AS-20276, MW=4514.1, 1 mg) was dissolved in a 1× PBS buffer (pH 7.4, 1 mL) to a final concentration of 222 μM. The solution was incubated (200 rpm) at 37° C. for 3 days, and the formed amyloid-beta plaques (Aβ plaques) were used in the following in vitro experiment without additional purification.
For TEM analysis, amyloid-beta plaques (20 μM) or amyloid-beta plaques (20 μM) and a compound (ANA, 100 μM) were treated on copper grids at room temperature. Each grid treated with samples (Aβ plaques or Aβ plaques+ANA) was washed three times with DI H2O and then stained with uranyl acetate (1% w/v DI H2O, 5 μL) for 1 minute. The uranyl acetate was removed, the grids were dried at room temperature for 20 minutes, and then the morphology of amyloid-beta plaques was analyzed by transmission electron microscopic images (TEM, Tecnai, G2 F30ST, FEI Company, OR, USA).

amyloid-beta plaques [3] = molecular target: T2, amyloid-beta plaques; assay: Confocal microscopy of amyloid-beta plaques with thioflavin S (ThS); settings: incubation with ANA for 24 hours
Protocol: as §1
In addition, to evaluate the presence of amyloid-beta plaques (AB plaques) and a change in the disaggregation morphology of amyloid-beta plaques according to incubation with ANA for 24 hours, thioflavin S (ThS), a probe of amyloid-beta plaques, was additionally treated, and the change thereof was confirmed by fluorescence analysis using a confocal microscope. The samples (Aβ plaques, Aβ plaques +ANA) were added to 1 mL of a ThS (0.5%) solution, and each mixture was pipetted onto a slide glass and dried overnight at room temperature. Then, fluorescence images were obtained using a laser scanning confocal microscope (CLSM, LSM800, Zeiss, Oberkochen, Germany). Confocal images were obtained under excitation at 520 nm (laser power: 3.00%) using a detector (GaAsP, detector gain: 680 V, detector wavelength: 548 to 617 nm).

amyloid-beta plaques [4] = molecular target: T2, amyloid-beta plaques; assay: ThT emission with supernatant of BCAP (released ANA); assay type: biochemical; settings: PBS pH 7.4, 25° C., ThT 10 μM

amyloid-beta plaque disaggregation efficacy versus concentration ([1]; ANA 10 μM to 100 μM, plaques 10 μM): concentration-dependent manner
fluorescence intensity change of ThT compared to a control group ([1]; candidate 100 μM, amyloid-beta plaques 10 μM, ThT 10 μM, 37° C., 24 hours, 482 nm): 23%
morphology of amyloid-beta plaques after treatment (TEM) (amyloid-beta plaques [2]): disaggregated and released into monomers
fluorescence intensity of ThS after treatment (amyloid-beta plaques [3]): significantly reduced
Compound: Nc1ccc2cc(S(=O)(=O)O)ccc2c1 [ANA, 6-amino-2-naphthalenesulfonic acid]
amyloid-beta plaque disaggregation efficacy at low concentration ([1]; ANA 10 μM, plaques 10 μM): significantly high amyloid-beta plaque disaggregation efficacy
amyloid-beta plaque disaggregation efficacy among A-T candidates ([1]; candidate 100 μM, library screening): highest amyloid-beta plaque disaggregation efficacy
amyloid-beta plaque disaggregation efficacy under various pH conditions ([1]; pH 3, 5, 7, 7.4, and 9): showed amyloid-beta plaque disaggregation efficacy at all pH conditions
amyloid-beta plaque disaggregation efficacy at pH of the brain ([1]; pH 7.4): highest amyloid-beta plaque disaggregation efficacy
amyloid-beta plaque disaggregation efficacy of ANA released from BCAP (amyloid-beta plaques [4]): still has the amyloid-beta plaque disaggregation efficacy
